Experiment [1] addresses T1, IGF-1 receptor β subunit (Homo sapiens, UniProt P08069).
T1 construct: endogenous in cells; host or cells: MCF-7
The experiment is described as follows: Tyrosine phosphorylation of IGF-1 receptor in MCF-7 cells. It counts as cell-based. To be noted: 5 mins., ATA, EB each at 300 μg/ml. The protocol: FIG. 6 is the effect of ATA and EB on tyrosine phosphorylation of IGF-1 receptor: MCF-7 cells, grown in 100 mm dishes, were treated with ATA, EB each at 300 μg/ml, or 20 ng/ml IGF-1 for 5 mins. Total cell extracts, solubilized in Buffer A, were immunoprecipitated with IGF1R antibody. The immunocomplexes precipitataed with protein G-Sepharose beads, were subjected to 7.5% SDS-PAGE followed by immunoblotting with a phosphotyrosine antibody. The membrane, after ECL detection, was stripped of bound antibody and reblotted with IGF1R antibody (IGF1R).
(§1) Cells were solubilized in Buffer A or C. Extracts were immunoprecipitated at 4° C. with antibodies to IRS-1, IRS-2, IGF-1 or IR receptor or Grb2, adsorbed on protein A-Sepharose beads. The immunocomplexes were pelleted by centrifugation at 12,000×g and washed twice with Buffer A, and twice with Buffer A containing 0.1% Triton x-100. The pellets were then suspended in Laemmli sample buffer and resolved on 7.5% SDS-PAGE.
(§2) Nitrocellulose blots of proteins were incubated with the antibodies, and proteins were detected by enhanced chemiluminescence using horseradish peroxidase-labeled protein A, horseradish peroxidase-labeled anti rabbit IgG or horseradish peroxidase-labeled anti-mouse IgG. […]

The test system of experiment [2] is MAPK-1 (44 kDa) and MAPK-2 (42 kDa). Description: Activation of MAPKs in MCF-7 cells (anti-active MAPK immunoblot). It counts as cell-based. To be noted: 5 mins., ATA, EB each at 300 μg/ml, IGF-1 20 or 40 ng/ml. The protocol:
FIG. 7 is the effect of ATA and EB on activation of MAPKs: MCF-7 cells were treated for 5 mins. with ATA, EB, each at 300 μg/ml, 20 ng/ml or 40 ng/ml IGF-1. Cell lysates, solubilized in Buffer C, were subjected to 12% SDS-PAGE and immunoblotted with an anti-active MAPK antibody. The membrane, after ECL detection, was stripped of bound antibody and blotted with an anti-MAPK antibody.
(§3) Nitrocellulose blots of proteins were incubated with the antibodies, and proteins were detected by enhanced chemiluminescence using horseradish peroxidase-labeled protein A, horseradish peroxidase-labeled anti rabbit IgG or horseradish peroxidase-labeled anti-mouse IgG.
The activated forms of MAPKs were detected by anti-active MAPK immunoblotting in the MCF-7 cell's lysates. […] Blotting with anti MAPKs antibodies confirms that similar amounts of MAPKs were present in treated and non-treated cells.
Background: A western blot detects proteins with antibodies after separation by electrophoresis.

In experiment [3] the target is T2, IR (Rattus norvegicus, UniProt P15127).
T2 construct: determined in the rat hepatoma cell line FaO; endogenous in cells; host or cells: FaO (rat hepatoma)
T2 sequence (P15127 764-1383 limits assumed): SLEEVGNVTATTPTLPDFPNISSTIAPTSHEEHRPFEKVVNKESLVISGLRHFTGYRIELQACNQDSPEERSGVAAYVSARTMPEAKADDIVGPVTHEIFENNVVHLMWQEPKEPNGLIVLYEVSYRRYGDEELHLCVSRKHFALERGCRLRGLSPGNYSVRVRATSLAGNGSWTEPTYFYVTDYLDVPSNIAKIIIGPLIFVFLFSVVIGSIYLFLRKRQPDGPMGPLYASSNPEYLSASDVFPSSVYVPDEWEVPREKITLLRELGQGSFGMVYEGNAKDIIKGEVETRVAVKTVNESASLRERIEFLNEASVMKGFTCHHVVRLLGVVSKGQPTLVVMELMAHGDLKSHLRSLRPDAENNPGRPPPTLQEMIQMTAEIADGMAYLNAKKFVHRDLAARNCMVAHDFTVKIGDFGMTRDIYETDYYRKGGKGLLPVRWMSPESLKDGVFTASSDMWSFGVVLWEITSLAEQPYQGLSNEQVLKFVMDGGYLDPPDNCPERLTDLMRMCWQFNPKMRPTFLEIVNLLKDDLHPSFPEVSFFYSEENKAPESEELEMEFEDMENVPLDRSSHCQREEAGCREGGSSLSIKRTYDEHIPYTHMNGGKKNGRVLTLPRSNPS
T2 sequence (P15127 27-759 limits assumed): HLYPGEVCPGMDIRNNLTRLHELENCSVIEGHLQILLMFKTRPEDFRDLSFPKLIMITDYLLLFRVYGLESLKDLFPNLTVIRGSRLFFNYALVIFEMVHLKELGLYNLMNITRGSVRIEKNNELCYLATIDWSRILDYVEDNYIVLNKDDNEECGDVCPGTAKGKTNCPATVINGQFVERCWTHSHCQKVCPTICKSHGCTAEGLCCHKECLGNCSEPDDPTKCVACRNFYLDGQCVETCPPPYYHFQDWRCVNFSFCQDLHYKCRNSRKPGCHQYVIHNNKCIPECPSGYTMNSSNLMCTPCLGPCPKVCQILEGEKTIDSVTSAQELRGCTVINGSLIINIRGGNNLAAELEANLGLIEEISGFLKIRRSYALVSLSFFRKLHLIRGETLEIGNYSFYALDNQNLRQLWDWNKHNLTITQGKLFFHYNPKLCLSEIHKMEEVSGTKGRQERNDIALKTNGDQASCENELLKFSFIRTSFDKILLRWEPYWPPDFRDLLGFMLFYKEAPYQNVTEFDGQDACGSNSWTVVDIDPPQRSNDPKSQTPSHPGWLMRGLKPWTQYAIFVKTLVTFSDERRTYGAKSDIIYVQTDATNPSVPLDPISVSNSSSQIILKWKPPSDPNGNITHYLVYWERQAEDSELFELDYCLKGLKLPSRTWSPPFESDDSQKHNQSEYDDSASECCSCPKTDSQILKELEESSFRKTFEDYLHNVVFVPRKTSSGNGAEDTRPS
The experiment is described as follows: Tyrosine phosphorylation of IR in FaO cells. To be noted: EB; for Tyrosine phosphorylation of IR: 5 mins., ATA at 200 μg/ml. It counts as cell-based. The protocol: (§4) FIG. 9 is the tyrosine phosphorylation of the IR cascade in Fao cells: A--Immunoblot analysis: Fao cells were deprived of serum for 20 hours, then incubated with EB, ATA, at 200 μg/ml or insulin at 600 ng/ml for 5 mins. Cell extracts were subjected to immunoprecipitation with antibodies to: IR β-subunit (αIR), IRS-1 (αIRS-1) and to IRS-2 (αIRS-2). The immunoprecipitates and total cell extracts were analyzed by SDS-PAGE. Proteins were transferred to nitrocellulose papers, and phosphotyrosine containing proteins were probed with anti-phosphotyrosine antibodies (αP-Tyr), antibody to the 85-kDa subunit of PI3-kinase (αp85) and antibodies to active MAPK (α active MAPK). The immunoblots were visualized by ECL (Amersham).
B--Kinetics of IR phosphorylation: Cells were treated either with 200 μg/ml EB for the indicated times (top panel) or with the indicated concentrations of EB for 5 mins. (middle panel). A 3 hour preincubation with vanadate preceded the 5 min. incubations with EB and insulin (bottom panel).
MCF-7 cells were grown in 35 or 100 mm dishes in DMEM with 5% bovine fetal serum. Rat hepato FaO cells were grown in RPMI 1640 medium supplemented with 10% fetal calf serum. Subconfluent monolayers of MCF-7 cells or FaO cells, were deprived of serum for 20 hours prior to each experiment. The medium was removed, and cells were incubated at 37° C. under the conditions as indicated for each experiment. The reaction was terminated by removing the medium and freezing the monolayers with liquid nitrogen. In some experiments, cells were preincubated with 50 μM sodium orthovanadate for 3 hours.
as §1, §3
The ability of EB and ATA to phosphorylate the IR was determined in the rat hepatoma cell line FaO. […] Phosphorylation is maximal after a 1 min. exposure to 70 μg/ml of EB (FIG. 9B, top and middle panels).

Experiment [4] relates to 3T3 L1 adipocytes. The experiment is described as follows: 2-deoxyglucose uptake in 3T3 L1 adipocytes. Conditions: 20 mins., EB, ATA 200 μg/ml, insulin 600 ng/ml. Type of experiment: cell-based. The protocol: (§5) FIG. 11 is the metabolic effects in 3T3 L1 adipocytes: Fully differentiated 3T3 L1 adipocytes were incubated with EB, ATA or fuchsin (FUCH) each at 200 μg/ml, or with 600 ng/ml of insulin for 20 mins. (A, B, C) or 5 mins. (D). CON indicates no additive.
A--2-deoxyglucose uptake. Hexose uptake was measured for 10 mins. using 50 μM 2-deoxy-(^3 H) glucose (1 μCi/ml). Non-specific uptake was determined in the presence of cytochalasin B (50 μM).

Experiment [5] has as its system 3T3 L1 adipocytes. Description: Glycogen synthesis in 3T3 L1 adipocytes. It counts as cell-based. Conditions: 20 mins., EB, ATA 200 μg/ml, insulin 600 ng/ml. The protocol:
as §5
B--Glycogen synthesis. Cells were incubated with (^14 C)-glucose for 10 mins. Radioactivity was determined in the precipitated glycogen fraction.

Experiment [6] has as its system 3T3 L1 adipocytes. The experiment is described as follows: Lipogenesis in 3T3 L1 adipocytes. Conditions: 20 mins., EB, ATA 200 μg/ml, insulin 600 ng/ml. Type of experiment: cell-based. The protocol: as §5
C--Lipogenesis. Cells were incubated with 5 mM(U-^14 C) glucose (1 μCi/ml) for 60 mins. Radioactivity was determined in the cellular lipid fraction.

Experiment [7] deals with IRS-1. Description: IRS-1 tyrosine phosphorylation and association with p85 in FaO cells. It counts as cell-based, rat. To be noted: 5 mins., EB 200 μg/ml, insulin 600 ng/ml. The protocol: as §4
MCF-7 cells were grown in 35 or 100 mm dishes in DMEM with 5% bovine fetal serum. Rat hepato FaO cells were grown in RPMI 1640 medium supplemented with 10% fetal calf serum. Subconfluent monolayers of MCF-7 cells or FaO cells, were deprived of serum for 20 hours prior to each experiment. The medium was removed, and cells were incubated at 37° C. under the conditions as indicated for each experiment. […]
as §2

For experiment [8], the system named is PI3-kinase. Description: In vivo PI3-kinase activity in rat liver. To be noted: Sprague-Dawley male rats, portal vein, 5 mins. after injection, EB 20 mg/rat, insulin 1 u/rat. The protocol: B--Induction of PI3-kinase. PI3-kinase activity, 5 mins. after injection was assayed as described in FIG. 9C. The results are representative of 2 to 4 independent experiments.
EB (20 mg/rat) or insulin (1 u/rat) was injected into about 120 g weighing Sprague-Dawley male rats, via the portal vein. Control rats were injected with saline (SAL) alone. The rats were killed and the livers excised and frozen in liquid nitrogen at the indicated times.

T1 sequence (P08069 741-1367 limits assumed): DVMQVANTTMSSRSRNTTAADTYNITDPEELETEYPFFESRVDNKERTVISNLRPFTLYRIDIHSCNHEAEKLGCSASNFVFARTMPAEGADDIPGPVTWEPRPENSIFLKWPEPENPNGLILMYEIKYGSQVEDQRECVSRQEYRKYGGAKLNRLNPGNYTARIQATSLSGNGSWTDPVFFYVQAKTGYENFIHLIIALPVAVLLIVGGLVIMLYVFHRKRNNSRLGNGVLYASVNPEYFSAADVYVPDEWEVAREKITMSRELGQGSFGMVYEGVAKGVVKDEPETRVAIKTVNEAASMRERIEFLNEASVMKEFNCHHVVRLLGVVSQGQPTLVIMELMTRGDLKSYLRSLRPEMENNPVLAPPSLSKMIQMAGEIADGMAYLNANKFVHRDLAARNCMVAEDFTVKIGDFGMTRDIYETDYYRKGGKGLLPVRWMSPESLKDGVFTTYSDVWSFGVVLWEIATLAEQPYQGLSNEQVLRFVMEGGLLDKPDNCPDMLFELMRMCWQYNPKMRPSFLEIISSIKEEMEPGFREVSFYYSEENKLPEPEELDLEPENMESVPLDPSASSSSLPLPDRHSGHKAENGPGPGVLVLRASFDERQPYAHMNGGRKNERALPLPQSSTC
T1 sequence (P08069 31-736 limits assumed): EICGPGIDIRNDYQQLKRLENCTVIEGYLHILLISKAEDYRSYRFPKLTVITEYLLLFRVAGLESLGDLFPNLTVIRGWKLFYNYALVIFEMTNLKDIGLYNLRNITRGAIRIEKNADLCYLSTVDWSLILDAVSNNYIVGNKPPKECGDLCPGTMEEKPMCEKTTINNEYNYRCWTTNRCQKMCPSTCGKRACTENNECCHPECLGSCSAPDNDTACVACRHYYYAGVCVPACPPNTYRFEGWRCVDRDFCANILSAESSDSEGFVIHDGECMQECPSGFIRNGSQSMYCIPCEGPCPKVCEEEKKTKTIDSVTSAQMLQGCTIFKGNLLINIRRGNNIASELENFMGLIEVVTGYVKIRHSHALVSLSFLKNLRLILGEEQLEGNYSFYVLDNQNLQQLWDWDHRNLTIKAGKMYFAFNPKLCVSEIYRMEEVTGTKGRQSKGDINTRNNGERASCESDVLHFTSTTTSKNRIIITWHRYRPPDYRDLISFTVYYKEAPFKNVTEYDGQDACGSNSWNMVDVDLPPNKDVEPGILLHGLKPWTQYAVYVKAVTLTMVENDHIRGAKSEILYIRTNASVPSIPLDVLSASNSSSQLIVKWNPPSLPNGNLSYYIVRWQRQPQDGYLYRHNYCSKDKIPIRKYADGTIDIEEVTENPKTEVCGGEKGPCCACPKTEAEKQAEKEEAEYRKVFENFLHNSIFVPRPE

Consider `O=C(O)C1=CC(=C(c2ccc(O)c(C(=O)O)c2)c2ccc(O)c(C(=O)O)c2)C=CC1=O` [ATA, Aurintricarboxylic acid], for which the “Tyrosine phosphorylation of IGF-1 receptor β subunit” value in experiment [1] is reported as “phosphorylated the IGF-1 receptor β subunit”. The “Phosphorylated (active) isoforms MAPK-1 and MAPK-2” value in experiment [2] is “clearly detected”. Also, in experiment [3], the “Tyrosine phosphorylation of IR” value is on record as “phosphorylates IR on tyrosine residues, similar to insulin”. Further, the Glucose uptake result in experiment [4] was “increase glucose uptake”. Moreover, the Glycogen synthesis result in experiment [5] is recorded as “increase”. In addition, in experiment [6], the Lipogenesis entry was “increase”.
Take `Cc1cc(-c2ccc(N=Nc3ccc4c(S(=O)(=O)O)cc(S(=O)(=O)O)c(N)c4c3O)c(C)c2)ccc1N=Nc1ccc2c(S(=O)(=O)O)cc(S(=O)(=O)O)c(N)c2c1O` [EB, Evan's Blue]: the “Tyrosine phosphorylation of IGF-1 receptor β subunit” value in experiment [1] is listed as “phosphorylated the IGF-1 receptor β subunit”. The “Phosphorylated (active) isoforms MAPK-1 and MAPK-2” value in experiment [2] is “clearly detected”. Also, in experiment [3], the “Tyrosine phosphorylation of IR” value was “phosphorylates IR on tyrosine residues, similar to insulin”; the “Concentration of maximal IR phosphorylation” value turned out to be 70 µg/mL; the “Exposure time of maximal IR phosphorylation” value was determined as 1 min. Besides, the “IRS-1 tyrosine phosphorylation and association with the 85-kDa regulatory subunit of PI-kinase” value in experiment [7] is on record as “enhanced”. Also, the “PI3-kinase activity in liver” value in experiment [8] is reported as “increased”. Moreover, the Glucose uptake entry in experiment [4] is “increase glucose uptake”. In experiment [5], the Glycogen synthesis entry is recorded as “increase”. Also, in experiment [6], the Lipogenesis entry is “increase”.

These data come from US6020374A, “Biologically active synthetic dye compounds” (priority 1998, dated 2000).
